Experimental data reported in patent publication US7947839B2, “Heterocyclic-substituted bis-1,8 naphthalimide compounds, antibody drug conjugates, and methods of use” (Genentech, Inc., priority 2004, dated 2011).
Where two headings read alike, the source gives them in different places.

Assays:
[1] = system: human lung (LX-1) carcinoma xenograft; conditions: in vivo; cited from earlier work
[2] = molecular target: T1, topoisomerase I isolated from calf thymus (Bos taurus, UniProt F1MN93); conditions: supercoiled DNA relaxation assay; cited from earlier work
T1 construct: topoisomerase I isolated from calf thymus; from tissue; host or cells: calf thymus
T1 sequence (F1MN93 1-767): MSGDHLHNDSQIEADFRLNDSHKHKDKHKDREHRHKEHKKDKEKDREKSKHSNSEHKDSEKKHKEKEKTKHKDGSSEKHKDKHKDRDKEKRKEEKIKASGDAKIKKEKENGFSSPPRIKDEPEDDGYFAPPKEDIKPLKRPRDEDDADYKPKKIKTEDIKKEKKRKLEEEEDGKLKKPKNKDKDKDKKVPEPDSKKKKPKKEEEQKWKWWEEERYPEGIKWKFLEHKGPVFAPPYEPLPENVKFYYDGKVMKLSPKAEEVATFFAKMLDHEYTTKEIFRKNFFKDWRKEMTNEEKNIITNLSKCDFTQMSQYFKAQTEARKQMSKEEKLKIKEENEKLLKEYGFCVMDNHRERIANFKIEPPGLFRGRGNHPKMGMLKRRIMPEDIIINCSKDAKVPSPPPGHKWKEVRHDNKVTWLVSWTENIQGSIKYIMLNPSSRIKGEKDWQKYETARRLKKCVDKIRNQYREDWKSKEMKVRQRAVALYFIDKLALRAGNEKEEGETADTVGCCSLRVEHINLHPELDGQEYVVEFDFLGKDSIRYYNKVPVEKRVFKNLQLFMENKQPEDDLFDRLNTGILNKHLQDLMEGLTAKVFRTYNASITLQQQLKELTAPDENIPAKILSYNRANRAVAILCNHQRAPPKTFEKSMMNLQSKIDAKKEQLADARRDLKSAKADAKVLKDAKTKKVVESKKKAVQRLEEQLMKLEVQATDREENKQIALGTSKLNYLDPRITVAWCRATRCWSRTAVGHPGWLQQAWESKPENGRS

human melanoma (LOX) = conditions: in vivo; cited from earlier work
topoisomerase II = conditions: unlike most other known topoisomerase II inhibitors; cited from earlier work
mouse xenograft models = conditions: repeated dosing regimens; no strong schedule dependency; cited from earlier work
[3] = system: MX-1 (mammary carcinoma) xenografts; conditions: iv five daily doses at 20 mg/kg (2 cycles), or every 3 days for two doses at 55 mg/kg (2 cycles), or weekly for four doses; cited from earlier work
[4] = system: human colon (CX-1) carcinoma xenograft; conditions: in vivo; cited from earlier work
[5] = system: BT474, H460, HCT116, HUVEC, LNCAP, MCF7, and PC3 cells; assay: free test compound cell-based assay, 7 tumor cell panel (CellTiter-Glo); parameters: species or system Human; conditions: NSA = no significant activity; for IC50: Homo sapiens
Procedure: Heterocyclic-substituted bis-1,8-naphthalimide compounds of Formula XV in Table 2 were prepared and tested for in vitro activity against a panel of tumor cells (Example 110).
Alternatively, the efficacy of compounds of the invention can be assayed by the following free test compound cell-based assay protocol
• 1. Prepare each cell line (BT474, H460, HCT116, HUVEC, LNCaP, MCF7, and PC3) at 1 k cells/well in separate plates with Complete Media (CM): RPM1 […]+10% FBS (Fetal Bovine Serum)+1% of 200 mM L-Glutamine. Plate number depends on test compounds provided by submitter. • 2. Detach prospective cell lines by first removing the media. When the flask is empty of media, begin rinsing out individual flasks with 5 mL sterile PBS. Move the PBS around within the flask to rinse well. Decant the PBS and add aseptically 5 mL of Accutase/flask. Make sure the Accutase covers the entire flask. • 3. Immediately place the flask(s) into a 37° C. incubator to allow cells to detach for 5-7 minutes. • 4. Post 5-7 minutes, remove flask(s) from the incubator and begin harvesting the detached cells using a serological pipette. Pipette up and down along the back of the flask to facilitate cell detachment. Pipette the Accutase containing cells into a sterile 50 mL conical tube/cell line. Pipette 10 mL of sterile PBS and re-rinse the flask to obtain remaining cells and dispense it into the same 50 mL conical tube/cell line for a total volume of 15 mL/tube/cell line. • 5. After each cell line has been allocated to a designated tube, take out 100 μL/tube/cell line for the cell counts. While the cell counts are being calculated, centrifuge the 50 mL tubes at 1000 rpm at 4° C. with a high brake. • 6. When centrifugation and cell calculations are completed, decant excess liquid and resuspend the cell pellet(s) using 5 mL CM, depending on calculations. • 7. Using a 5 mL syringe and an 18 G ½ needle, strain the cells to help prevent aggregation. Further strain by using a […] cell filter to block out any huge aggregates not broken down by the needle. • 8. After cell straining and filtering, take out calculated amount for a 1 k cells/well into fresh media. Take the media containing cells and load 100 μL/well into a bottom tissue culture treated flat 96 well plate. • 9. Immediately place in a 37° C. incubator overnight to allow the cells to adhere to the tissue culture treated 96 well plates. Day 2: • 1. Test compounds are submitted at 10 mM in sterile DMSO. • 2. DMSO as negative control and a positive standard are used in every assay! • 3. Prepare a 1:1000 fold dilution for each test compound, control, and standard for a 10e-5 M starting point. Do a 1:100 first, then a 1:10. • 4. Prior to diluting samples, vortex the samples and the controls for a homogeneous mixture. Note any sample that will not solubilize and/or stay in suspension. • 5. When the samples are at 10e-5 M, vortex each tube well and spin down fluid to ensure sample remains in tacked. Manual Dilution Protocol: • 1. After the tubes are at a final 1:1000 (10e-5 M) dilution, load the first column of the microtube box with the prospective sample. Load DMSO and positive control in singlets. The test compounds are loaded in duplicates. Load the remaining empty microtube racks with 540 μL of media to prepare for a serial dilution of 1:10. • 2. Agitate and transfer 60 μL from column 1 into successive wells containing 540 μL of media (1:10). Therefore, transfer 60 μL of column 1 into 540 μL of column 2. Resuspend column 2 about 10-15×'s then transfer 60 μL from column 2 to column 3 etc. Automated Dilution Protocol: • 1. Once the tubes are at a final 1:1000 (10e-5 M), load the first column of the microtube box with the prospective sample. Load DMSO and positive control in singlets. The compounds are loaded in duplicates. Load the remaining empty microtube racks manually with 540 μL of media to prepare for the automated serial dilution of 1:10 (see above diagram). • 2. […]

[6] = average linear IC50 across the 7 tumor cell panel, read-out: Avg.
[7] = average log IC50 across the 7 tumor cell panel, read-out: Avg. (log IC50) (converted)

In the case of O=C1c2cccc3cccc(c23)C(=O)N1CCNCCCNCCN1C(=O)c2cccc3cccc(c23)C1=O [elinafide], the “tumor regression in human lung (LX-1) carcinoma xenograft model” value [1] is given as “partial and complete tumor regression, as well as some cures”, the IC50 [2] is given as 5000 nM and the “efficacy in human melanoma (LOX) models” value (human melanoma (LOX)) is given as “curative”. The DNA cleavage (topoisomerase II) was “does not cause significant DNA cleavage”, the antitumor activity (mouse xenograft models) was “demonstrated antitumor activity” and the “regression of MX-1 (mammary carcinoma) xenografts” value [3] was “complete regression”. The “tumor regression in human colon (CX-1) carcinoma xenograft model” value [4] was “partial and complete tumor regression, as well as some cures”.

Work on CCOC(=O)N(CCCNCCN1C(=O)c2cccc3c(N4CCOCC4)ccc(c23)C1=O)CCN1C(=O)c2cccc3c(N4CCOCC4)ccc(c23)C1=O [Compound 54f, N, N′-(N-carboethoxy, bis-aminoethyl-1,3-propanediamine)-bis-4-morpholino-1,8 naphthalimide] yielded an IC50 [5, 6] of 692 nM and an IC50 [5, 7] of 692 nM.

For CC(=O)N(CCCNCCN1C(=O)c2cccc3c(N4CCOCC4)ccc(c23)C1=O)CCN1C(=O)c2cccc3c(N4CCOCC4)ccc(c23)C1=O [Compound 54c, N, N′-(N-acetyl, bis-aminoethyl-1,3-propanediamine)-bis-4-morpholino-1,8 naphthalimide], the IC50 [5, 6] was 191 nM and the IC50 [5, 7] was 191 nM.

CN1CCN(c2ccc3c4c(cccc24)C(=O)N(CCNCCNCCN2C(=O)c4cccc5c(Br)ccc(c45)C2=O)C3=O)CC1 [Compound 61, N, N′-(bis-aminoethyl-1,2-ethanediamine)-4-piperazino,4-bromo-1,8 naphthalimide] gave an IC50 [5, 6] of 40.7 nM and an IC50 [5, 7] of 40.7 nM.

Work on CC(=O)N1CCN(c2ccc3c4c(cccc24)C(=O)N(CCNCCCNCCN2C(=O)c4cccc5c(N(C)C)ccc(c45)C2=O)C3=O)CC1 [Compound 64, N, N′-(bis-aminoethyl-1,3-propanediamine)-4-(4-acetylpiperazino)-4-dimethylamino-1,8 naphthalimide] yielded an IC50 [5, 6] of 1.82 nM and an IC50 [5, 7] of 1.82 nM.

In the case of CC(=O)c1ccc2c3c(cccc13)C(=O)N(CCNCCCNCCN1C(=O)c3cccc4c(N5CCOCC5)ccc(c34)C1=O)C2=O [Compound 62, N, N′-(bis-aminoethyl-1,3-propanediamine)-4-acetyl,4-morpholino-1,8 naphthalimide], the IC50 [5, 6] is reported as 4.57 nM and the IC50 [5, 7] is reported as 4.57 nM.

In the case of O=C(CC(=O)NCCN1C(=O)c2cccc3c(N4CCOCC4)ccc(c23)C1=O)NCCN1C(=O)c2cccc3c(N4CCOCC4)ccc(c23)C1=O [Compound 35, N, N′-(bis-ethyl, malondiamide)-bis-4-morpholino-1,8 naphthalimide], the “Avg. (nM)” value ([5]; average linear IC50 across the 7 tumor cell panel) is reported as “NSA” and the “Avg. (log IC50)” value ([5]; average log IC50 across the 7 tumor cell panel) is reported as “NSA”.

For O=C1c2cccc3c(N4CCOCC4)ccc(c23)C(=O)N1CCNCCNCCN1C(=O)c2cccc3c(N4CCOCC4)ccc(c23)C1=O [Compound 54a, N, N′-(bis-aminoethyl-1,2-ethanediamine)-bis-4-morpholino-1,8 naphthalimide], the IC50 [5, 6] was 22.9 nM and the IC50 [5, 7] was 22.9 nM.

O=C1c2cccc3c(N4CCOCC4)ccc(c23)C(=O)N1CCCCNCCCN1C(=O)c2cccc3c(N4CCOCC4)ccc(c23)C1=O [Compound 45, N, N′-(4-aza-octanyl)-bis-4-morpholino-1,8 naphthalimide] showed an IC50 [5, 6] of 1510 nM and an IC50 [5, 7] of 1510 nM.

For O=C(CCS)N(CCCNCCN1C(=O)c2cccc3c(N4CCOCC4)ccc(c23)C1=O)CCN1C(=O)c2cccc3c(N4CCOCC4)ccc(c23)C1=O [Compound 55c, N, N′-(N-3-mercaptopropionyl, bis-aminoethyl-1,3-propanediamine)-bis-4-morpholino-1,8 naphthalimide], the IC50 [5, 6] was 3720 nM and the IC50 [5, 7] was 3720 nM.

Work on O=C1c2cccc3c(N4CCOCC4)ccc(c23)C(=O)N1CCNCCCN(CCCS)CCN1C(=O)c2cccc3c(N4CCOCC4)ccc(c23)C1=O [Compound 55a, N, N′-(N-3-mercaptopropyl, bis-aminoethyl-1,3-propanediamine)-bis-4-morpholino-1,8 naphthalimide] yielded an IC50 [5, 6] of 57.5 nM and an IC50 [5, 7] of 57.5 nM.
